Test results reported in patent publication US20240199618A1, “NOVEL N-ACYL-[3-SUBSTITUTED]-[8-SUBSTITUTED]-5,6-DIHYDRO-[1,2,4]TRIAZOLO[4,3-a]PYRAZINES AS SELECTIVE NK-3 RECEPTOR ANTAGONISTS, PHARMACEUTICAL COMPOSITION, METHODS FOR USE IN NK-3 RECEPTOR-MEDIATED DISORDERS” (Ogeda SA, priority 2013, published 2024).
Like-named read-outs stand apart in the source and are kept apart here.

What was measured:
[1] = biological target: human NK-2 receptor (Homo sapiens (Human), UniProt P21452); assay: Selectivity assay: [125I]-Neurokinin A binding, human NK-2 receptor; conditions: 0.1 nM [125I]-Neurokinin A, CHO membranes; read-out: hNK-2 (Ki)
Procedure: The affinity of compounds of the invention for the NK-2 receptor was evaluated in CHO recombinant cells which express the human NK-2 receptor. Membrane suspensions were prepared from these cells. […] Binding assays were performed in a 25 mM HEPES/1 mM CaCl2)/5 mM MgCl2/0.5% BSA/10 μg/ml saponin, at pH 7.4. […] The radioactivity retained on the filters was measured by using the TopCount-NXT reader (Packard).

[2] = system: circulating levels of luteinizing hormone (LH); assay: Castrated male rat model, circulating luteinizing hormone (LH); format: in vivo; conditions: single oral dose less than or equal to 30 mg/kg, p<0.05
Procedure: Castrated Male Rat Model to Assess the Effect of Compound of Invention on Circulating Levels of Luteinizing Hormone (LH)
The effect of compounds of the invention to inhibit luteinizing hormone (LH) secretion is determined by the following biological studies.
In humans and rodents, castration is well-precedented to permit heightened, persistent GnRH signaling and consequent elevation of circulating LH. Thus, a castrated rat model is used to provide a broad index for measurement of LH inhibition as a marker of test compound inhibition of the GnRH signaling pathway.
Castrated adult male Sprague-Dawley (SD) rats (150-175 g,) were purchased from Janvier (St Berthevin, France). All animals were housed 2 per cage in a temperature-controlled room (22±2° C.) and 50±5% relative humidity with a 12 hour/12 hour light/dark cycles (lights off at […]). The animals were allowed 3 weeks of postoperative recovery prior to study. Animals were handled on a daily basis. Standard diet and tap water were provided ad libitum. Animal cage litters were changed once a week. On the study day, animals were acclimated to the procedure room for a period of one hour prior to the initiation of the experiment.
Compounds of the invention were formulated in 0.5% methyl cellulose.
After basal sampling (TO) a single dose of compounds of the invention or vehicle was administrated orally to rats. Blood samples were then collected at several time points post dosing (45, 90, 150, 300 and 420 minutes). Blood samples were obtained via tail vein bleed, drawn into EDTA-containing tubes and centrifuged immediately. Plasma samples were collected and stored in a −80° C. freezer until assayed. Serum LH levels were determined using radioimmunoassay kit from RIAZEN—Rat L H, Zentech (Liege, Belgium). Baseline was defined as the initial basal blood sample.

[3] = system: plasma protein; assay: Determination of plasma protein binding (equilibrium dialysis, RED); format: in vitro ADME; conditions: 4 hours at 37° C.
From the text: Determination of plasma protein binding The pharmacokinetic and pharmacodynamic properties of chemicals/drugs are largely a function of the reversible binding of chemicals to plasma or serum proteins. […] Consequently, the extent of the plasma protein binding (PPB) of a compound influences its action as well as its distribution and elimination.
The determination of plasma protein binding (PPB) of a compound is enabled by equilibrium dialysis, an accepted and standard method for reliable estimation of the non-bound drug fraction in plasma. RED (Rapid Equilibrium Dialysis) device insert is made of two side-by-side chambers separated by an O-ring-sealed vertical cylinder of dialysis membrane (MWCO ˜8,000). […] After 4 hours incubation at 37° C. under shaking, an aliquot is removed from each chamber and analyzed by a LC-MS/MS procedure enables the determination of both free and bound drug.
The “free fraction” may be calculated as 100%−% rPPB (i.e. the complementary percentage of that disclosed in Table 4, corresponding to the drug concentration that is unbound and therefore available to engage biological target and elicit pharmacological activity).

[4] = biological target: human NK-1 receptor (Homo sapiens (Human), UniProt P25103); assay: Selectivity assay: [3H] substance P binding, human NK-1 receptor; conditions: 2 nM [3H] substance P, CHO membranes; read-out: hNK-1 (Ki)
Procedure: Selectivity of the compounds of the invention was determined over the other human NK receptors, namely NK-1 and NK-2 receptors.
The affinity of compounds of the invention for the NK-1 receptor was evaluated in CHO recombinant cells which express the human NK-1 receptor. Membrane suspensions were prepared from these cells. The following radioligand: [^3H] substance P (PerkinElmer Cat #NET111520) was used in this assay. Binding assays were performed in a 50 mM Tris/5 mM MnCl2/150 mM NaCl/0.1% BSA at pH 7.4. Binding assays consisted of 25 μl of membrane suspension (approximately 5 μg of protein/well in a 96 well plate), 50 μl of compound or reference ligand (Substance P) at increasing concentrations (diluted in assay buffer) and 2 nM [^3H] substance P. The plate was incubated 60 min at 25° C. in a water bath and then filtered over GF/C filters (Perkin Elmer, 6005174, presoaked in 0.5% PEI for 2 h at room temperature) with a Filtration unit (Perkin Elmer). The radioactivity retained on the filters was measured by using the TopCount-NXT reader (Packard).

[5] = biological target: T1, human NK-3 receptor (Homo sapiens (Human), UniProt P29371); assay: 3H-SB222200 binding competition assay with human NK-3 receptor
Procedure: The affinity of compounds of the invention for the human NK-3 receptor was determined by measuring the ability of compounds of the invention to competitively and reversibly displace a well-characterized NK-3 radioligand in a concentration-dependent manner.
^3H-SB222200 Binding Competition Assay with Human NK-3 Receptor
Membranes were prepared from Chinese hamster ovary recombinant cells stably expressing the human NK-3 receptor. The membranes were incubated with 5 nM ^3H-SB222200 (ARC) in a HEPES 25 mM/NaCl 0.1M/CaCl2 1 mM/MgCl2 5 mM/BSA 0.5%/Saponin 10 μg/ml buffer at pH 7.4 and various concentrations of compounds of the invention. The amount of ^3H-SB222200 bound to the receptor was determined after filtration by the quantification of membrane associated radioactivity using the TopCount-NXT reader (Packard).

[6] = biological target: T1, human NK-3 receptor; assay: Aequorin functional assay with human NK-3 receptor (antagonist testing vs NKA); format: cell-based; conditions: CHO cells, NKA at EC80 (3 nM); read-out: Functional assay: Aequorin assay with human NK-3 receptor hNK-3-AEQ (antagonist IC50)
Procedure: Aequorin Assay with Human NK-3 Receptor
Changes in intracellular calcium levels are a recognized indicator of G protein-coupled receptor activity. The efficacy of compounds of the invention to inhibit NKA-mediated NK-3 receptor activation was assessed by an in vitro Aequorin functional assay. Chinese Hamster Ovary recombinant cells expressing the human NK-3 receptor and a construct that encodes the photoprotein apoaequorin were used for this assay. In the presence of the cofactor coelenterazine, apoaequorin emits a measurable luminescence that is proportional to the amount of intracellular (cytoplasmic) free calcium.
The antagonist activity of compounds of the invention is measured following pre-incubation (3 minutes) of the compound (at various concentrations) with the cells, followed by addition of the reference agonist (NKA) at a final concentration equivalent to the EC80 (3 nM) and recording of emitted light (FDSS 6000 Hamamatsu) over the subsequent 90-second period. The intensity of the emitted light is integrated using the reader software. Compound antagonist activity is measured based on the concentration-dependent inhibition of the luminescence response to the addition of Neurokinin A.

[7] = Table 2, 5 nM 3H-SB222200, CHO membranes, read-out: Competitive binding assay with human NK-3 receptor hNK-3 (Ki)
[8] = Table 3 (selectivity table), read-out: hNK-3 (Ki)

human NK-1 receptor, sequence (P25103 whole entry): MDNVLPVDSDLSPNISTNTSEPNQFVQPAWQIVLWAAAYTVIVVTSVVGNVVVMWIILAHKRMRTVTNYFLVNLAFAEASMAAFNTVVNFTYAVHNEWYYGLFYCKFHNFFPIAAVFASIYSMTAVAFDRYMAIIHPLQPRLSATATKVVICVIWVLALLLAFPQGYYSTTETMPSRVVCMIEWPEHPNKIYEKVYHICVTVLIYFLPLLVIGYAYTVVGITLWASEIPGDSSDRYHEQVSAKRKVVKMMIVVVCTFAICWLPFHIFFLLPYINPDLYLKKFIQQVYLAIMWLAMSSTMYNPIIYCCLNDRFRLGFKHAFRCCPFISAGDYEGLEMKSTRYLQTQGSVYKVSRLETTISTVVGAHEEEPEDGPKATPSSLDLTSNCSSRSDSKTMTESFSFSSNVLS
T1 sequence (P29371 whole entry): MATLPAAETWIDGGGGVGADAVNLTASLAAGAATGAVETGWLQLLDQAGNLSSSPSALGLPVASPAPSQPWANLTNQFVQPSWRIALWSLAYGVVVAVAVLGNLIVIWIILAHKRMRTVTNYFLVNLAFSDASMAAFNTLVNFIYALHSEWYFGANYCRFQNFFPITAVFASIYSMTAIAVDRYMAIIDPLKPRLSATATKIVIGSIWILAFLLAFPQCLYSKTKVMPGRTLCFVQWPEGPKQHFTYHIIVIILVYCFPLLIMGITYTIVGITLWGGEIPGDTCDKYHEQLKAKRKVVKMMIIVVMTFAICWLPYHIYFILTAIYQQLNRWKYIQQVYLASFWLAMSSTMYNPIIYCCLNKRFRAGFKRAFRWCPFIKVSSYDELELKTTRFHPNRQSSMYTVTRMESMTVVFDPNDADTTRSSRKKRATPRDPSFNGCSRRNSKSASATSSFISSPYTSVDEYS
human NK-2 receptor, sequence (P21452 whole entry): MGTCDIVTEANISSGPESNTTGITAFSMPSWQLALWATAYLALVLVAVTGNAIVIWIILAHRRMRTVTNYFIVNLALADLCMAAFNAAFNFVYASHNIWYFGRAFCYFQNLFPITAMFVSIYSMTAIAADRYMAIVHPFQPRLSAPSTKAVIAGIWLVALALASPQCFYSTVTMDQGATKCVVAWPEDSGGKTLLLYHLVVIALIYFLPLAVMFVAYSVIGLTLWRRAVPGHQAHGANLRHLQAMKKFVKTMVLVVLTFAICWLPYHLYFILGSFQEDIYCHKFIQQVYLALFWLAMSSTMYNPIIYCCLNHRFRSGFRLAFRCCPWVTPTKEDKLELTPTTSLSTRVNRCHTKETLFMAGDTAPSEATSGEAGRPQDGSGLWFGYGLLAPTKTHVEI

| Structure (SMILES) | Ki [1] [nM] | circulating LH levels [2] | Exposure (% rPPB), bound drug fraction to plasma protein [3] [%] | Ki [4] [nM] | Ki [5, 7] [nM] | Ki [5, 8] [nM] | IC50 [6] [nM] |
| --- | --- | --- | --- | --- | --- | --- | --- |
| Cc1nsc(-c2nnc3n2CCN(C(=O)c2ccc(Cl)c(F)c2)[C@@H]3C)n1 [Compound 4, (R)-(4-chloro-3-fluorophenyl)(8-methyl-3-(3-methyl-1,2,4-thiadiazol-5-yl)-5,6-dihydro-[1,2,4]triazolo[4,3-a]pyrazin-7(8H)-yl)methanone] | 23000 | significantly suppressed | 40 | 19900 | 20 | 20 | 19 |
| CCc1noc(-c2nnc3n2CCN(C(=O)c2ccc(F)cc2)[C@@H]3C)n1 [Compound 13, (R)-(3-(3-ethyl-1,2,4-oxadiazol-5-yl)-8-methyl-5,6-dihydro-[1,2,4]triazolo[4,3-a]pyrazin-7(8H)-yl)(4-fluorophenyl)methanone] | > 30000 | significantly suppressed | 37 | > 30000 | 40 | 40 | 44 |
| CCc1noc(-c2nnc3n2CCN(C(=O)c2ccc(-c4cccs4)cc2)[C@@H]3C)n1 [Compound 30, (R)-(3-(3-ethyl-1,2,4-oxadiazol-5-yl)-8-methyl-5,6-dihydro-[1,2,4]triazolo[4,3-a]pyrazin-7(8H)-yl)(4-(thiophen-2-yl)phenyl)methanone] | – | significantly suppressed | 94 | 40000 | 7 | 7 | 5 |
| Cc1nsc(-c2nnc3n2CCN(C(=O)c2ccccc2)[C@@H]3C)n1 [Compound 20, (R)-(8-methyl-3-(3-methyl-1,2,4-thiadiazol-5-yl)-5,6-dihydro-[1,2,4]triazolo[4,3-a]pyrazin-7(8H)-yl)(phenyl)methanone] | > 30000 | significantly suppressed | – | > 30000 | 60 | 60 | 93 |
| Cc1nsc(-c2nnc3n2CCN(C(=O)c2cc(F)c(F)c(F)c2)[C@@H]3C)n1 [Compound 7, (R)-(8-methyl-3-(3-methyl-1,2,4-thiadiazol-5-yl)-5,6-dihydro-[1,2,4]triazolo[4,3-a]pyrazin-7(8H)-yl)(3,4,5-trifluorophenyl)methanone] | 36000 | – | 26 | > 30000 | 26 | 26 | 30 |
| Cc1nsc(-c2nnc3n2CCN(C(=O)c2ccc(F)c(F)c2F)C3C)n1 (racemic) [Compound 33, (8-methyl-3-(3-methyl-1,2,4-thiadiazol-5-yl)-5,6-dihydro-[1,2,4]triazolo[4,3-a]pyrazin-7(8H)-yl)(2,3,4-trifluorophenyl)methanone] | > 30000 | – | 29 | > 30000 | 89 | 89 | 120 |
| Cc1nsc(-c2nnc3n2CCN(C(=O)c2ccc(C#N)cc2)[C@@H]3C)n1 [Compound 29, (R)-4-(8-methyl-3-(3-methyl-1,2,4-thiadiazol-5-yl)-5,6,7,8-tetrahydro-[1,2,4]triazolo[4,3-a]pyrazine-7-carbonyl)benzonitrile] | > 30000 | – | 10 | > 30000 | 150 | 150 | 170 |
| CC(F)c1noc(-c2nnc3n2CCN(C(=O)c2ccc(F)cc2)[C@@H]3C)n1 (single isomer, unassigned) [Compound 45-1] | > 30000 | – | 27 | > 30000 | 100 | 100 | 285 |
| Cc1nsc(-c2nnc3n2CCN(C(=O)c2ccccc2C)[C@@H]3C)n1 [Compound 26, (R)-(8-methyl-3-(3-methyl-1,2,4-thiadiazol-5-yl)-5,6-dihydro-[1,2,4]triazolo[4,3-a]pyrazin-7(8H)-yl)(o-tolyl)methanone] | > 30000 | – | 19 | > 30000 | 88 | 88 | 74 |
| COc1cc(C(=O)N2CCn3c(-c4nc(C)ns4)nnc3[C@H]2C)ccc1F [Compound 25, (R)-(4-fluoro-3-methoxyphenyl)(8-methyl-3-(3-methyl-1,2,4-thiadiazol-5-yl)-5,6-dihydro-[1,2,4]triazolo[4,3-a]pyrazin-7(8H)-yl)methanone] | > 30000 | – | 19 | > 30000 | 85 | 85 | 110 |
| Cc1nsc(-c2nnc3n2CCN(C(=O)c2cc(F)cc(F)c2)[C@@H]3C)n1 [Compound 17, (R)-(3,5-difluorophenyl)(8-methyl-3-(3-methyl-1,2,4-thiadiazol-5-yl)-5,6-dihydro-[1,2,4]triazolo[4,3-a]pyrazin-7(8H)-yl)methanone] | > 30000 | – | 24 | > 30000 | 51 | 51 | 50 |
